Among the data in EP4467141A1, “PYRAZOLO-QUINOLINES AS SELECTIVE INHIBITORS OF GENOTOXIC STRESS-INDUCED IKK/NF- KB PATHWAYS FOR CANCER THERAPY” (Max-Delbrück-Centrum für Molekulare Medizin in der …, priority 2023, dated 2024) are inhibition values, retold here.

Common to all, as to test: Kinase panel study
Holding throughout (type): biochemical
Common to all, as to settings: read-out: Percentage of inhibition; for inhibition at 1 µM: 1000nM; for inhibition at 10 µM: 10000nM

One experiment addresses T1, SRC N1 (Homo sapiens, UniProt P12931).
T1 construct: purchased Thermo Fisher Scientific
An outline of the steps:
(§1)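 Single-point inhibition data at 10 µM or 1 µM compound are shown. They were generated in ZLyte- or Adapta-format biochemical assays performed externally under standard conditions.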

In a further experiment the target is T2, CDK7/cyclin H/MNAT1 (Homo sapiens, UniProt P50613).
T2 construct: purchased Thermo Fisher Scientific
T2 sequence (P50613 whole entry): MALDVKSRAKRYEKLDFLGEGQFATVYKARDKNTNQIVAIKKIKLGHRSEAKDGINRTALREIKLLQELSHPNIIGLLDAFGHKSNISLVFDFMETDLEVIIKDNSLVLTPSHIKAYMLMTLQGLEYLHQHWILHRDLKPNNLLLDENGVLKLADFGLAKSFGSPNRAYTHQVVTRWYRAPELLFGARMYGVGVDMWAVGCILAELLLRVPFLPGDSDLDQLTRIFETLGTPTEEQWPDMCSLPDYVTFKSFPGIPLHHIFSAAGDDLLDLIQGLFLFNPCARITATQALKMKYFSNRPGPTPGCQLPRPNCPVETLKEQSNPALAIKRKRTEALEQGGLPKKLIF
T2 sequence (P51946 whole entry partner): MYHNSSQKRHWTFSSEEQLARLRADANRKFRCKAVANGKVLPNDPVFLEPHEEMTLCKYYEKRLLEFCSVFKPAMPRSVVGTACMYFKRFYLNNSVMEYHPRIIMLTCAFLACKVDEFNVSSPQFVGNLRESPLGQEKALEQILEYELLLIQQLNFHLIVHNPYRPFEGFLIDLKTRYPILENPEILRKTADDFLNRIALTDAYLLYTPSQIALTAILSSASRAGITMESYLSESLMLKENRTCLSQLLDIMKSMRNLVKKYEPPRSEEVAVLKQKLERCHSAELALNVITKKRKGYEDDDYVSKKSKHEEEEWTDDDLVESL
T2 sequence (P51948 whole entry partner): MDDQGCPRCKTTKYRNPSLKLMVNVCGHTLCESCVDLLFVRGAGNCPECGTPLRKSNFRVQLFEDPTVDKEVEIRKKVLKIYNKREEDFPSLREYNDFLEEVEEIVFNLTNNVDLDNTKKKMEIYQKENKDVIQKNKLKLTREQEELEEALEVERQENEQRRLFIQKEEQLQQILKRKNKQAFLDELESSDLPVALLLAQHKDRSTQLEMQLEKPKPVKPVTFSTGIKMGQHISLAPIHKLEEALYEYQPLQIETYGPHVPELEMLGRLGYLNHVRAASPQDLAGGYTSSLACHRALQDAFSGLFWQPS
An outline of the steps:
as §1

The target of the next experiment is T3, RET Y791F (Homo sapiens, UniProt P07949, Y791F).
T3 construct: purchased Thermo Fisher Scientific
T3 sequence (P07949 29-1114 Y791F): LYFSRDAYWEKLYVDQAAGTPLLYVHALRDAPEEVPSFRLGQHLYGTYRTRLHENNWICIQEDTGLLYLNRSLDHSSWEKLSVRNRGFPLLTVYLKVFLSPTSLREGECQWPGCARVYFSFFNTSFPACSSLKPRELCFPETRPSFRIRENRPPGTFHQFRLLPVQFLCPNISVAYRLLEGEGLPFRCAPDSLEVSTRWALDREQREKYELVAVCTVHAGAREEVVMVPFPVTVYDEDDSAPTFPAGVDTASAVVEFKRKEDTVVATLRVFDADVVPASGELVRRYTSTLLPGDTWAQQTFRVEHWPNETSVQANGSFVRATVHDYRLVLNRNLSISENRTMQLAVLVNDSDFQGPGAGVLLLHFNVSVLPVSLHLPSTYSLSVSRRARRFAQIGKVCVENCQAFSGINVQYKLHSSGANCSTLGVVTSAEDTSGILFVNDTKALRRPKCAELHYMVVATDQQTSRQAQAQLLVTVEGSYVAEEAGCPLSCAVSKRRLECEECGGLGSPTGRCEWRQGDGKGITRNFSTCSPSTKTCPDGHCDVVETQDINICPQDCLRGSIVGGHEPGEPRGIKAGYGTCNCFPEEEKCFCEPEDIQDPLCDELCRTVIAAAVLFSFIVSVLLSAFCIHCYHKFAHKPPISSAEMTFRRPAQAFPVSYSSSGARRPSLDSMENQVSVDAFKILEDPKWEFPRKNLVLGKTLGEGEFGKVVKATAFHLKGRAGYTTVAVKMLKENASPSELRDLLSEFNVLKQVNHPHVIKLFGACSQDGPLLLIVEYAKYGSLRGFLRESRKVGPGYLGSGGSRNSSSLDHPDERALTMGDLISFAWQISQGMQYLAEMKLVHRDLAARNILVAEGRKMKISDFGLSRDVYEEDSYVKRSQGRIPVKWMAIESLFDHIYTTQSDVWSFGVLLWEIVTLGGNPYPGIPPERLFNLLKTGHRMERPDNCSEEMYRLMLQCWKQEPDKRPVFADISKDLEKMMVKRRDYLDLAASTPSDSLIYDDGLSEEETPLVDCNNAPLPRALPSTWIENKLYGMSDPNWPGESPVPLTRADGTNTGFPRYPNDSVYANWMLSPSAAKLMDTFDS
The essentials: as §1

Another experiment deals with T4, GRK7 (Homo sapiens, UniProt Q8WTQ7).
T4 construct: purchased Thermo Fisher Scientific
T4 sequence (Q8WTQ7 1-553): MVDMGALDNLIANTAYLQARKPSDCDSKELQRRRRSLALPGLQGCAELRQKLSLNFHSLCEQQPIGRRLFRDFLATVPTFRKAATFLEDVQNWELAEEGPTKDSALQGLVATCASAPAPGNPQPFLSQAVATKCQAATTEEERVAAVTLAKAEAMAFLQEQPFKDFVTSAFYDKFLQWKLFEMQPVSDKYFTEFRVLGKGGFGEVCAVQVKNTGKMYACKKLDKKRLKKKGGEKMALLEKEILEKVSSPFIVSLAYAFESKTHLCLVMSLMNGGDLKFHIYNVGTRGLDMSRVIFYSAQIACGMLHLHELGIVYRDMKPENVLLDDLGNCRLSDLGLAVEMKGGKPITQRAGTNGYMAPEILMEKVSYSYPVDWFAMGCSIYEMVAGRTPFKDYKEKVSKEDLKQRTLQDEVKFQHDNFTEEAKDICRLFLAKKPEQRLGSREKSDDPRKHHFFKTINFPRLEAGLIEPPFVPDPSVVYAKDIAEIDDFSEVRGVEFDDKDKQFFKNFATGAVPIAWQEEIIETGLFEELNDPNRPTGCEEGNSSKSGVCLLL
An outline of the steps:
as §1

In another experiment the target is T5, RET A883F (Homo sapiens, UniProt P07949, A883F).
T5 construct: purchased Thermo Fisher Scientific
T5 sequence (P07949 29-1114 A883F): as the sequence (P07949 29-1114 Y791F) above, with F763Y, A855F counted along it
An outline of the steps:
as §1

Another experiment has as its target T6, RET V804E (Homo sapiens, UniProt P07949, V804E).
T6 construct: purchased Thermo Fisher Scientific
An outline of the steps:
as §1

The target of a further experiment is T7, ABL1 (Homo sapiens, UniProt P00519).
T7 construct: purchased Thermo Fisher Scientific
An outline of the steps: as §1

A further experiment has as its target T8, SRPK2 (Homo sapiens, UniProt P78362).
T8 construct: purchased Thermo Fisher Scientific
An outline of the steps: as §1

A further experiment concerns the target T9, PIM3 (Homo sapiens, UniProt Q86V86).
T9 construct: purchased Thermo Fisher Scientific
The essentials: as §1

For a further experiment, the target named is T10, HIPK1 (Myak) (Homo sapiens, UniProt Q86Z02).
T10 construct: purchased Thermo Fisher Scientific
T10 sequence (Q86Z02 whole entry): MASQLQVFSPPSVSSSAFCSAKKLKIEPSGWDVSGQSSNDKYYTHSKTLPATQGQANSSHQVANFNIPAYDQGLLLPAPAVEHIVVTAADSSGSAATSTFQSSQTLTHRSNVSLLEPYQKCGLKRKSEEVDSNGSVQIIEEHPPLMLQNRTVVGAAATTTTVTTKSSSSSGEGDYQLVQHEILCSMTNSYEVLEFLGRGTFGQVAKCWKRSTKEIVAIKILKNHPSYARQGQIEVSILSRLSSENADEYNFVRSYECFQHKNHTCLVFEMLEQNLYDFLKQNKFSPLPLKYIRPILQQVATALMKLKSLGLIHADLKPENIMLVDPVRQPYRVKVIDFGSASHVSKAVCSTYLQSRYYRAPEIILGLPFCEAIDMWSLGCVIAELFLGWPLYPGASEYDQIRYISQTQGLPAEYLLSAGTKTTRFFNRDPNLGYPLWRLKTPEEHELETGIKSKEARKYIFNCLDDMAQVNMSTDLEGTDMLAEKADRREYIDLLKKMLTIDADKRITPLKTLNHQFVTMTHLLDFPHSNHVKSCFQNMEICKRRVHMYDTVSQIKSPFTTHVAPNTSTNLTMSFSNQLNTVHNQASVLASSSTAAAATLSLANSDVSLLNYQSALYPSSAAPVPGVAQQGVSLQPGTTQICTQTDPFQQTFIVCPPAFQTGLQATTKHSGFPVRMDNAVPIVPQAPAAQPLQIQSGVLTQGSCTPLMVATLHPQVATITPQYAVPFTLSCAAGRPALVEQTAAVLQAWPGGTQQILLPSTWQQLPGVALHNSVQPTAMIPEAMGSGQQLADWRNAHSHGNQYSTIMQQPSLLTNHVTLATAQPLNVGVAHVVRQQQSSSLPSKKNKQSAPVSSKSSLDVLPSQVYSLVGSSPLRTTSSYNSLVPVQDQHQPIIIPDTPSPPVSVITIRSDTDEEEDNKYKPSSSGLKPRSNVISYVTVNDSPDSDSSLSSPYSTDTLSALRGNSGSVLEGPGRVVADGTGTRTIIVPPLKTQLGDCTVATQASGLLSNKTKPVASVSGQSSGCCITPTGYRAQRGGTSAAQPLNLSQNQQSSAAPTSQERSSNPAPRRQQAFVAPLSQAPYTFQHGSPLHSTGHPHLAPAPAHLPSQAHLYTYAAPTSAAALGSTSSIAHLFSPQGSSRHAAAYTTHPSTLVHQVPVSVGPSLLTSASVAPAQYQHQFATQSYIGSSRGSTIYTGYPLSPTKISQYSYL
An outline of the steps: as §1

In the next experiment the target is T11, CHUK (IKK alpha) (Homo sapiens, UniProt O15111).
T11 construct: purchased Thermo Fisher Scientific
T11 sequence (O15111 1-745): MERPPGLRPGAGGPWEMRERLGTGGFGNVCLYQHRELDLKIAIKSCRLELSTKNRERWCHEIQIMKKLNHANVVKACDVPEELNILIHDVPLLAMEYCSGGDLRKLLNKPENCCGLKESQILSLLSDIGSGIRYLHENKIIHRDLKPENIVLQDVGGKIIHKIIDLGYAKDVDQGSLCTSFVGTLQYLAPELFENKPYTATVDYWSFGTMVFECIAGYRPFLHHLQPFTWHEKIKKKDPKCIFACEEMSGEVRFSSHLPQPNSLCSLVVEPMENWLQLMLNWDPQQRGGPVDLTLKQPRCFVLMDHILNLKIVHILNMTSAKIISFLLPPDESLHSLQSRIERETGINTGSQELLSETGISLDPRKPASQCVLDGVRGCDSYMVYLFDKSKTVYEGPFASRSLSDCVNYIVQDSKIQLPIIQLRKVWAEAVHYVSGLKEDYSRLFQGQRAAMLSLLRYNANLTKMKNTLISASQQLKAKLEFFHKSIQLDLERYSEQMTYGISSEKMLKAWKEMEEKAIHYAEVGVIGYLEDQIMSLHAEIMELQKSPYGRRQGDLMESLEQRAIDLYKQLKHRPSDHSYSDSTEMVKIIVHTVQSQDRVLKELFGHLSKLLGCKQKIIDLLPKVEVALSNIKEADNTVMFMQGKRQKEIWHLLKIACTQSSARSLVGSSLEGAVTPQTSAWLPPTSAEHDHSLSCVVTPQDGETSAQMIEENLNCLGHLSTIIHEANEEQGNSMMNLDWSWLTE
The essentials:
as §1

The next experiment has as its target T12, PLK3 (Homo sapiens, UniProt Q9H4B4).
T12 construct: purchased Thermo Fisher Scientific
The essentials: as §1

T12 sequence (Q9H4B4 whole entry): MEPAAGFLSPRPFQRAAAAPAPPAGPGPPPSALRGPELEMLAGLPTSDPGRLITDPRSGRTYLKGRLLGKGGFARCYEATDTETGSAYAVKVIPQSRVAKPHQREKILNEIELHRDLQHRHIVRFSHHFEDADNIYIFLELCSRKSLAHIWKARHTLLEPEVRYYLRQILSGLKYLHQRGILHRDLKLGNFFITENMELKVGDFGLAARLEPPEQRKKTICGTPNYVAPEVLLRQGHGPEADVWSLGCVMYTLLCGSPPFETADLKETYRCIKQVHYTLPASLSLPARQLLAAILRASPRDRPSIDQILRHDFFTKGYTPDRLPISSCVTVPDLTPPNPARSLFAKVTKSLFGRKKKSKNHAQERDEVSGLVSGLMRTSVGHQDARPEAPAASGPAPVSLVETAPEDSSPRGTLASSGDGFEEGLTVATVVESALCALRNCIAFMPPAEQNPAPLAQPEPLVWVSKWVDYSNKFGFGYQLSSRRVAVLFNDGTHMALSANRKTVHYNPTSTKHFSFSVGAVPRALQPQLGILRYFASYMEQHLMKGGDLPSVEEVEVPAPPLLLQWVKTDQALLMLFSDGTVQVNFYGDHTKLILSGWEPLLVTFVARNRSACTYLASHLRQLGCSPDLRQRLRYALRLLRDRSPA
T6 sequence (P07949 29-1114 V804E): as the sequence (P07949 29-1114 Y791F) above, with F763Y, V776E counted along it
T8 sequence (P78362 whole entry): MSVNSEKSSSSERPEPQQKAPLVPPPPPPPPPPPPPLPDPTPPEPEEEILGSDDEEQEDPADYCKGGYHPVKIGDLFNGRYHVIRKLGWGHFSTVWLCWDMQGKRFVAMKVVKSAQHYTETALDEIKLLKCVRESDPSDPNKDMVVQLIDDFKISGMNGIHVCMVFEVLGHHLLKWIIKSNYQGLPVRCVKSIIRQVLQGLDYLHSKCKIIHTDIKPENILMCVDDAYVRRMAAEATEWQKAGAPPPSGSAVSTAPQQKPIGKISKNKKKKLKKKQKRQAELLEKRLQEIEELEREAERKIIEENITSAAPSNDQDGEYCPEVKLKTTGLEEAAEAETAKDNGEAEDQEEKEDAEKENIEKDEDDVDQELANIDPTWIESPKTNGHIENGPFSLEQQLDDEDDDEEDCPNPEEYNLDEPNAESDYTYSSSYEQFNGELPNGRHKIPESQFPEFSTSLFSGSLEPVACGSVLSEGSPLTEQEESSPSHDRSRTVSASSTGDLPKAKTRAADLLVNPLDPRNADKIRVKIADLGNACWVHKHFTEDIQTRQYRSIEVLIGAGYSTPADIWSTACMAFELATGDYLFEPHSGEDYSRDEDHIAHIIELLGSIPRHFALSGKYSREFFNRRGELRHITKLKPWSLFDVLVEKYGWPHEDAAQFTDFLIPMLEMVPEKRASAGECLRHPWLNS

With `COc1ccc2c(c1OC)c(=O)n1c3ccc(O)cc3c3ccnc2c31` [MW01, 5-Hydroxy-10,11-dimethoxy-9H-benzo[c]indolo[3,2,1-ij][1,5]naphthyridin-9-one], the inhibition at 1 µM on SRC N1 was 15%; at CDK7/cyclin H/MNAT1 it was 3%; on RET Y791F it was 17%; at GRK7 it was -2%; at RET A883F, 10%; on RET V804E it was 5%. For the same compound, the inhibition at 1 µM on ABL1 was 15%; on SRPK2, -2%; at PIM3 it was 22%; on HIPK1 (Myak), 21%; on CHUK (IKK alpha), 19%; on PLK3, 6%. The inhibition at 10 µM turned out to be 25% on SRC N1; 4% at CDK7/cyclin H/MNAT1; 32% on RET Y791F; 0% on GRK7; 24% at RET A883F; 17% at RET V804E. The inhibition at 10 µM was found to be 27% at ABL1; 0% on SRPK2; 42% at PIM3; 47% on HIPK1 (Myak); 21% on CHUK (IKK alpha); 23% at PLK3.

For `COc1ccc2cc3c(N)nn(C(=O)c4cccc(N(C)C)c4)c3nc2c1` [MW05, (3-Amino-7-methoxypyrazolo[3,4-b]quinolin-1-yl)-[3-(dimethylamino)phenyl]methanone], the inhibition at 1 µM at SRC N1 is 16%; on CDK7/cyclin H/MNAT1, 2%; at RET Y791F, 5%; on GRK7, -2%; at RET A883F, 7%; on RET V804E it was 1%. Also, the inhibition at 1 µM at ABL1 was 4%; on SRPK2, 4%; on PIM3, 11%; at HIPK1 (Myak), -4%; on CHUK (IKK alpha) it was 7%; on PLK3 it was 5%. The inhibition at 10 µM was 14% on SRC N1; 29% at CDK7/cyclin H/MNAT1; 7% at RET Y791F; 5% at GRK7; 3% at RET A883F; -7% at RET V804E. The inhibition at 10 µM was 6% on ABL1; 10% on SRPK2; 2% on PIM3; -6% on HIPK1 (Myak); 18% at CHUK (IKK alpha); 12% at PLK3.
